Article PMC10739250 (ACS Bio & Med Chem Au, 2023)
Values after ≈ are worked out from the molar mass of the structure shown.

Experiments:
in vitro [1] = conditions: human, microsomes
physchem [2] = test: physchem
[3] = rat hepatocytes, 0.5 ×10^6 cells/mL
physchem [4] = conditions: thermodynamic from solid
[5] = system: SARS-CoV-2/Canada/VIDO 01/2020; assay type: cell-based; conditions: read-out: EC50 in the presence of the efflux inhibitor CP-100356
in vitro [6] = conditions: hamster, hepatocytes
[7] = human, pH 7.4
in vitro [8] = conditions: human, hepatocytes

## CC(C)(C)[C@H](NC(=O)C(F)(F)F)C(=O)N1C[C@H]2[C@@H]([C@H]1C(=O)N[C@H](C#N)C[C@@H]1CCNC1=O)C2(C)C [Compound 1, nirmatrelvir]
In vitro [1]
  half-life: 40.2 min
Physchem [2]
  logD: 1.86
[3]
  hepatocyte stability, t1/2, rat: 244.7 min
Physchem [4]
  solubility thermodynamic: 4.79 mM (≈ 2390 µg/mL)
[5]
  EC50: 200 nM
In vitro [6]
  half-life: 57.4 min
[7]
  amount of metabolite Major: 100
  amount of metabolite Minor A: 5.1 ± 0.8
  amount of metabolite Minor B: 2.3 ± 0.4
  increase of minor metabolites A and B on deuteration: 210%
  minor sites (Minor A and Minor B), share of total metabolites: less than 10%
In vitro [8]
  half-life: > 434 min
